Data on four compounds can be found in BindingDB's records for doi:10.1080/14756360310001640913 (Saarland University, 2004).

The assay deals with T1, Steroid 17-alpha-hydroxylase/17,20 lyase (Homo sapiens, UniProt P05093).
T1 sequence (P05093 whole entry): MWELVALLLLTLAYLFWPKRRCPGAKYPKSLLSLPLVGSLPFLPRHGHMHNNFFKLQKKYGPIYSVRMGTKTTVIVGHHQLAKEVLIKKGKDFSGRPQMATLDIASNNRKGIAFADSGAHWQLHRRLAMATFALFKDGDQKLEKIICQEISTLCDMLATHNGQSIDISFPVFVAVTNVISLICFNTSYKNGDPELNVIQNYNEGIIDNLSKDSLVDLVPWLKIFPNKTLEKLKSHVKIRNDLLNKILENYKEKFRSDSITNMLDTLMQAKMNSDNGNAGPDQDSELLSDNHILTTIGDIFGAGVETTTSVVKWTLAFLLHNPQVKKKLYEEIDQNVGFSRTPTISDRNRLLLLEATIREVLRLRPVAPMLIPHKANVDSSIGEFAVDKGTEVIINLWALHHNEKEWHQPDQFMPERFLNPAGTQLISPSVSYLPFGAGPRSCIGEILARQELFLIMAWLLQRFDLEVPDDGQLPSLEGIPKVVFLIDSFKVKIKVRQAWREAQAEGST
In words: CYP17 Assay. The settings on record: pH 7.4; 37 °C.
Compound `COc1ccc2c(c1)CCC(Cc1cnc[nH]1)=C2C` yielded an IC50 of 110 nM. The compound `Oc1ccc(-c2ccc(Cn3ccnc3)cc2)cc1O` [4-[4-(1H-imidazol-1-ylmethyl)phenyl]benzene-1,2-diol] displayed a half-inhibitory concentration (IC50) of 120 nM. The same measure for `COc1cc2c(cc1OC)C(C)=C(Cc1cnc[nH]1)CC2` [5-[(6,7-dimethoxy-1-methyl-3,4-dihydronaphthalen-2-yl)methyl]-1H-imidazole]: 490 nM; for `COc1cc2c(cc1O)C(C)=C(Cc1cnc[nH]1)CC2` [dihydronaphthalene derivative]: 1100 nM.
